Source: patent US11154569B2, “Ruthenium μ-nitrido complexes and their use as calcium uptake inhibitors” (CORNELL UNIVERSITY, priority 2018, dated 2021)

Key:
HEK293 cells = assay: Whole cell uptake of ruthenium (GFAAS) in HEK293 cells; format: cell-based, human; conditions: 50 μM, 24 hours
Procedure: HEK293 cells were grown to near confluence in 75 cm^2 dishes. […] The cells were then treated with culture media containing 50 μM of the complex and incubated at 37° C. for 24 hours. The cells were washed with 1 mL of PBS and harvested using 0.05% trypsin. The cells were pelleted by centrifugation, re-suspended in 1 mL of PBS, and pelleted again. The washing and pelleting step was repeated a total of three times, after which the supernatant was removed and the cells were suspended in 500 μL of lysis buffer containing 1% w/v 3-[3-cholamidopropyl)dimethylammonio]-1-propanesulfonate) (CHAPS), 5 mM ethylenediamine tetraacetic acid (EDTA), and 50 mM tris(hydroxymethyl)aminomethane (Tris) and 100 mM NaCl (pH=7.4). The suspension was vortexed for 30 seconds and incubated on ice for 45 minutes. Control cells not treated with the complexes were handled identically to the treated cells to correct for ruthenium present in the cells, and control dishes were incubated with the complex in the absence of cells to correct for non-specific adsorption of ruthenium to the plastic. If needed, samples were stored in −80° C. until analysis. Ruthenium and protein content of the lysates were determined as described above.

HeLa cells = assay: Mitochondrial accumulation of ruthenium in HeLa cells (mitochondrial isolation, GFAAS); conditions: 50 μM, 24 hours
Procedure: Approximately 1×10^6 HeLa cells were seeded in 75 cm^2 dishes and allowed to adhere overnight. The following day, the cell culture media was removed, and the cells were washed with 3 mL of PBS before treatment with media containing 50 μM of the complex. After 24 hours, the culture media was removed, and the cell monolayer was washed with 3 mL of PBS before the cells were harvested by trypsinization. The cell suspension was centrifuged, and the resulting pellet was resuspended in 3 ml, of PBS and centrifuged again to remove extracellular ruthenium. This washing step was repeated a total of three times. […] The ruthenium concentration in each sample was determined by GFAAS and was normalized to the protein content of the lysate, which was determined using the Bicinchoninic Acid Protein Assay Kit. […] Results were calculated as the mass ratio of total ruthenium to protein (pg/μg) in each sample±standard deviation of three independent trials. […]
To determine the abilities of the complexes to accumulate in the mitochondria, HeLa cells were treated with C-1, C-2 or C-3 (50 μM) in culture media for 24 hours, and the mitochondria were isolated following modified literature procedures (e.g., A. C. Komor et al., J. Am Chem. Soc. 2012, 134, 19223-19233). Both the mitochondrial and extramitochondrial fractions were analyzed for ruthenium content.

Water solubility = format: physicochemical

For `N.N.N.N.N.N.N.N.[Cl-].[Cl-].[N-3].[Ru+4].[Ru+4]` [C-2, [Ru2(μ-N)(NH3)8Cl2]Cl3], which “cellular uptake relative to C-1” value (HEK293 cells) is on record?
Its value is 10 times.

What about the “cellular uptake relative to C-3” value (HEK293 cells) of the same compound?
The value was “over twice as effectively as C-3”.

What about the “concentration in the mitochondria compared to C-1 and C-3” value (HeLa cells) of the same compound?
Its value is “greater than three-fold higher concentrations”.

What about the solubility (Water solubility) of the same compound?
The solubility was 1000 µg/mL.
